# In ChEMBL document CHEMBL4257566, “Design, synthesis and structure-based optimization of novel isoxazole-containing benzamide derivatives as FtsZ modulators” (Eur J Med Chem, 2018):
# Assays:
# Format in all cases: functional
# [1] = tested on: Bacillus pumilus; assay: Antibacterial activity against Bacillus pumilus CMCC63202 after 24 hrs by broth microdilution based CLSI method; details: CMCC63202, 24 h
# [2] = tested on: Escherichia coli; assay: Antibacterial activity against Escherichia coli ATCC 25922 after 24 hrs by broth microdilution based CLSI method; details: ATCC 25922, 24 h
# [3] = tested on: Bacillus subtilis; assay: Antibacterial activity against Bacillus subtilis ATCC 9372 after 24 hrs by broth microdilution based CLSI method; details: ATCC 9372, 24 h
# [4] = tested on: Staphylococcus aureus; assay: Antibacterial activity against clinical isolate of penicillin-resistant Staphylococcus aureus after 24 hrs by broth microdilution based CLSI method
# [5] = tested on: Staphylococcus aureus; assay: Antibacterial activity against Staphylococcus aureus ATCC 25923 after 24 hrs by broth microdilution based CLSI method; details: ATCC 25923, 24 h
# [6] = tested on: Pseudomonas aeruginosa; assay: Antibacterial activity against Pseudomonas aeruginosa ATCC 27853 after 24 hrs by broth microdilution based CLSI method; details: ATCC 27853, 24 h
# [7] = tested on: Staphylococcus aureus; assay: Antibacterial activity against methicillin-resistant Staphylococcus aureus ATCC 43300 after 24 hrs by broth microdilution based CLSI method; details: ATCC 43300, 24 h
compound,measurement,setting,value
NC(=O)c1c(F)ccc(OCc2cc(-c3ccc(Br)cc3)no2)c1F,MIC,[1],> 64 µg/mL
same,MIC,[2],> 64 µg/mL
same,MIC,[3],1 µg/mL
same,MIC,[4],> 64 µg/mL
same,MIC,[5],> 64 µg/mL
same,MIC,[6],> 64 µg/mL
same,MIC,[7],> 64 µg/mL
CCCOc1cccc(-c2cc(COc3ccc(F)c(C(N)=O)c3F)on2)c1,MIC,[1],> 64 µg/mL
same,MIC,[2],> 64 µg/mL
same,MIC,[3],64 µg/mL
same,MIC,[4],> 64 µg/mL
same,MIC,[5],> 64 µg/mL
same,MIC,[6],> 64 µg/mL
same,MIC,[7],> 64 µg/mL
NC(=O)c1c(F)ccc(OCc2cc(-c3cccc(Cl)c3)on2)c1F,MIC,[1],> 64 µg/mL
same,MIC,[2],> 64 µg/mL
same,MIC,[3],8 µg/mL
same,MIC,[4],> 64 µg/mL
same,MIC,[5],> 64 µg/mL
same,MIC,[6],> 64 µg/mL
same,MIC,[7],> 64 µg/mL
COc1cccc(-c2cc(COc3ccc(F)c(C(N)=O)c3F)on2)c1,MIC,[1],> 64 µg/mL
same,MIC,[2],> 64 µg/mL
same,MIC,[3],64 µg/mL
same,MIC,[4],> 64 µg/mL
same,MIC,[5],> 64 µg/mL
same,MIC,[6],> 64 µg/mL
same,MIC,[7],> 64 µg/mL
Cc1ccc(-c2cc(COc3ccc(F)c(C(N)=O)c3F)on2)cc1,MIC,[1],> 64 µg/mL
same,MIC,[2],> 64 µg/mL
same,MIC,[3],8 µg/mL
same,MIC,[4],> 64 µg/mL
same,MIC,[5],> 64 µg/mL
same,MIC,[6],> 64 µg/mL
same,MIC,[7],> 64 µg/mL
CCOc1cccc(-c2cc(COc3ccc(F)c(C(N)=O)c3F)on2)c1,MIC,[1],16 µg/mL
same,MIC,[2],> 64 µg/mL
same,MIC,[3],2 µg/mL
same,MIC,[4],> 64 µg/mL
same,MIC,[5],> 64 µg/mL
same,MIC,[6],> 64 µg/mL
same,MIC,[7],> 64 µg/mL
COc1ccc(-c2cc(COc3ccc(F)c(C(N)=O)c3F)on2)cc1OC,MIC,[1],> 64 µg/mL
same,MIC,[2],> 64 µg/mL
same,MIC,[3],> 64 µg/mL
same,MIC,[4],> 64 µg/mL
same,MIC,[5],> 64 µg/mL
same,MIC,[6],> 64 µg/mL
same,MIC,[7],> 64 µg/mL
NC(=O)c1c(F)ccc(OCc2cc(-c3ccco3)no2)c1F,MIC,[1],> 64 µg/mL
same,MIC,[2],> 64 µg/mL
same,MIC,[3],32 µg/mL
same,MIC,[4],> 64 µg/mL
same,MIC,[5],> 64 µg/mL
same,MIC,[6],> 64 µg/mL
same,MIC,[7],> 64 µg/mL
NC(=O)c1c(F)ccc(OCc2cc(/C=C/c3ccccc3)no2)c1F,MIC,[1],> 64 µg/mL
same,MIC,[2],> 64 µg/mL
same,MIC,[3],8 µg/mL
same,MIC,[4],> 64 µg/mL
same,MIC,[5],> 64 µg/mL
same,MIC,[6],> 64 µg/mL
same,MIC,[7],> 64 µg/mL
NC(=O)c1c(F)ccc(OCc2cc(-c3ccc(F)cc3)no2)c1F,MIC,[1],> 64 µg/mL
same,MIC,[2],> 64 µg/mL
same,MIC,[3],4 µg/mL
same,MIC,[4],> 64 µg/mL
same,MIC,[5],> 64 µg/mL
same,MIC,[6],> 64 µg/mL
same,MIC,[7],> 64 µg/mL
CCCCOc1ccc(-c2cc(COc3ccc(F)c(C(N)=O)c3F)on2)cc1,MIC,[1],> 64 µg/mL
same,MIC,[2],> 64 µg/mL
same,MIC,[3],> 64 µg/mL
same,MIC,[4],> 64 µg/mL
same,MIC,[5],> 64 µg/mL
same,MIC,[6],> 64 µg/mL
same,MIC,[7],> 64 µg/mL
CCOc1cccc(-c2cc(COc3ccc(F)c(C(N)=O)c3F)no2)c1,MIC,[1],> 64 µg/mL
same,MIC,[2],> 64 µg/mL
same,MIC,[3],32 µg/mL
same,MIC,[4],> 64 µg/mL
same,MIC,[5],> 64 µg/mL
same,MIC,[6],> 64 µg/mL
same,MIC,[7],> 64 µg/mL
COc1ccc(-c2cc(COc3ccc(F)c(C(N)=O)c3F)no2)cc1,MIC,[1],> 64 µg/mL
same,MIC,[2],> 64 µg/mL
same,MIC,[3],64 µg/mL
same,MIC,[4],> 64 µg/mL
same,MIC,[5],> 64 µg/mL
same,MIC,[6],> 64 µg/mL
same,MIC,[7],> 64 µg/mL
NC(=O)c1c(F)ccc(OCc2cc(-c3ccccc3)no2)c1F,MIC,[1],> 64 µg/mL
same,MIC,[2],> 64 µg/mL
same,MIC,[3],64 µg/mL
same,MIC,[4],> 64 µg/mL
same,MIC,[5],> 64 µg/mL
same,MIC,[6],> 64 µg/mL
same,MIC,[7],> 64 µg/mL
COc1ccc(-c2cc(COc3ccc(F)c(C(N)=O)c3F)on2)cc1,MIC,[1],> 64 µg/mL
same,MIC,[2],> 64 µg/mL
same,MIC,[3],3 µg/mL
same,MIC,[4],> 64 µg/mL
same,MIC,[5],64 µg/mL
same,MIC,[6],> 64 µg/mL
same,MIC,[7],4 µg/mL
CC(C)(C)c1ccc(-c2onc(COc3ccc(F)c(C(N)=O)c3F)c2Br)cc1,MIC,[1],1 µg/mL
same,MIC,[2],> 64 µg/mL
same,MIC,[3],1 µg/mL
same,MIC,[4],> 64 µg/mL
same,MIC,[5],> 64 µg/mL
same,MIC,[6],> 64 µg/mL
same,MIC,[7],> 64 µg/mL
CCCOc1ccc(-c2cc(COc3ccc(F)c(C(N)=O)c3F)on2)cc1,MIC,[1],> 64 µg/mL
same,MIC,[2],> 64 µg/mL
same,MIC,[3],16 µg/mL
same,MIC,[4],> 64 µg/mL
same,MIC,[5],> 64 µg/mL
same,MIC,[6],> 64 µg/mL
same,MIC,[7],> 64 µg/mL
COc1ccccc1-c1cc(COc2ccc(F)c(C(N)=O)c2F)on1,MIC,[1],> 64 µg/mL
same,MIC,[2],> 64 µg/mL
same,MIC,[3],> 64 µg/mL
same,MIC,[4],> 64 µg/mL
same,MIC,[5],> 64 µg/mL
same,MIC,[6],> 64 µg/mL
same,MIC,[7],> 64 µg/mL
CCCCc1ccc(-c2cc(COc3ccc(F)c(C(N)=O)c3F)no2)cc1,MIC,[1],> 64 µg/mL
same,MIC,[2],> 64 µg/mL
same,MIC,[3],0.06 µg/mL
same,MIC,[4],> 64 µg/mL
same,MIC,[5],> 64 µg/mL
same,MIC,[6],> 64 µg/mL
same,MIC,[7],> 64 µg/mL
NC(=O)c1c(F)ccc(OCc2cc(-c3ccc(-c4ccccn4)cc3)no2)c1F,MIC,[1],> 64 µg/mL
same,MIC,[2],> 64 µg/mL
same,MIC,[3],64 µg/mL
same,MIC,[4],> 64 µg/mL
same,MIC,[5],> 64 µg/mL
same,MIC,[6],> 64 µg/mL
same,MIC,[7],> 64 µg/mL
